How the values were obtained:
[1] = tested on: cortical primary neurons (from C57BL6/J mice); assay: H2O2 production in neurons after excitotoxic NMDA stimulus (Amplex Red); type: cell-based; details: 100 μM NMDA 10 min, then compound 0.1, 1, 5 μM (FIG. 5)
Description: (§1) For NMDA receptors activation, neurons at 8 days in vitro were incubated with 100 μM NMDA for 10 minutes. Neurons were then washed and further incubated for 4 hours in culture medium with DMSO only (DMSO empty bar), DMSO and NMDA (DMSO filled bar) and with increasing quantities of GKK1032C, GKK1032, Pyrrocidine A, Pyrrocidine B, CL0661, CL0667 and CL0670. Concentrations of 0.1 μM, 1 μM, 5 μM. *: p-value <0.05 vs. DMSO+NMDA (student's test).
(§2) Experiments were performed in […] cortical primary neurons, obtained as was previously described (Herrero-Mendez A. et al., Nat. Cell. Biol. 11:747-752, 2009). After 7 or 8 days in B27-MAO culture, neurons (from C57BL6/J mice) were incubated in the presence of N-methyl-D-aspartate (NMDA, a H2O2 production promoter; 100 μM) for 10 minutes, followed by a PBS washing step and submitted to a 24-hour B27 incubation step in the absence (DMSO) or presence of increasing amounts of GKK1032C, GKK1032, Pyrrocidine B, Pyrrocidine A, CL0661, CL0665, CL0667 and CL0670 (0.1 μM, 1 μM and 5 μM). B27-MAO stands for Neurobasal medium, supplemented with B27 supplement in the absence of antioxidants (minus antioxidants, MAO).
The release of H2O2 was measured using the fluorescent method Amplex© Red hydrogen peroxide/peroxidase assay kit (Invitrogen, catalog number A22188) using a multiwell fluorescence reader (Varioskan, Thermo Scientific).
(§3) The data are presented as the mean values±standard deviation of the mean from n=3.

[2] = tested on: cortical primary neurons (from C57BL6/J mice); assay: Caspase-3 activity (neuronal apoptosis) after excitotoxic NMDA stimulus; type: cell-based; details: 100 μM NMDA 10 min, then 24 h with compound 0.1, 1, 5 μM (FIG. 6)
Description: as §1, with “24” for “4”, “Pyrrocidine” for “Pyrrocidine A, Pyrrocidine”, “CL0661, CL0665,” for “CL0661,”, “pvalue” for “p-value”
as §2
Neuronal apoptosis was determined by measuring caspase-3 activity (Veas-Perez de Tudela et al. Sci Rep 5:18180; doi:10.1038/srep18180 (2015).
as §3

C57BL6/J male mice [3] = assay: Rotarod test in 3-nitropropionic acid chemical model of Huntington's disease; type: in vivo; details: group II injected with GKK1032C and CL0670, once-daily 150 mg/kg for 3 days, plus 3-nitropropionic acid 50 mg/kg twice daily; after two administrations (FIG. 15)
Description: Compound I and CL0670 injections were performed at day 1 and day 2. 3-nitropropionic acid injections were performed at days 1, 1.5, 2, 2.5, 3 and 3.5. The shown data points were obtained 2 hours after the injections. p-value<0.05 vs. control (student's test).
(§4) A chemical model of Huntington's disease was conducted to evaluate the capacity of compound I and CL0670 in protecting neurons. This is achieved by intraperitoneal injection of 3-nitropropionic acid which induces neuronal oxidative stress by inhibiting the succinate dehydrogenase enzyme.
(§5) 8-weeks old C57BL6/J male mice were divided into 4 groups.
(§6) Mice in group I (4 mice) were injected with GKK1032C and CL0670 (once-daily dose of 150 mg/kg for 3 days).
(§7) Mice in group II (5 mice) were injected with GKK1032C and CL0670 (once-daily dose of 150 mg/kg for 3 days) and with 3-nitropropionic acid (twice daily dose of 50 mg/kg for 3 days). In the case of group II, 3-nitropropionic acid was injected two hours and twelve hours after injection with GKK1032C and CL0670.
(§8) Mice in group III (5 mice) were injected with 3-nitropropionic acid (twice daily dose of 50 mg/kg for 3 days).
(§9) Mice in group IV (6 mice) were injected with vehicle only.
The mice were submitted to the rotarod test once-daily, 2 hours after the injections. […]

C57BL6/J male mice [4] = assay: Open field test in 3-nitropropionic acid chemical model of Huntington's disease; type: in vivo; details: mice injected with GKK1032C and CL0670, once-daily 150 mg/kg (FIG. 16)
Description: GKK1032C and CL0670 injections were performed at day 1, day 2 and day 3. 3-nitropropionic acid injections were performed at days 1, 1.5, 2, 2.5, 3 and 3.5. The shown data points were obtained 4 hours after the injections. p-value<0.05 vs. control (student's test).
as §4, §5, §6, §7, §8, §9

C57BL6/J male mice [5] = assay: Rotarod test after Middle Cerebral Artery occlusion (stroke model); type: in vivo; details: GKK1032C and CL0670 10 mg/kg intravenously (jugular vein) after 30 min occlusion; rotarod 24 hours after reanimation; untreated stroke impairment ˜75%
Description: (§10) Middle Cerebral Artery occlusion involves temporarily or permanently restricting MCA blood flow to the cortex and striatum. The cerebral ischemic model of stroke is commonly used to assess ischemic injury in the brain. Occlusion of the middle cerebral artery (MCA) leads to a reduction of cerebral blood flow in both the striatum and the cortex. It is a highly reproducible model that results in brain damages similar to those occurring in human stroke.
(§11) Compounds GKK1032C and CL0670 were administered intravenously at a dose of 10 mg/kg. 11-week old C57BL6/J male mice were divided into 3 groups of 7 mice each: mice submitted to Middle Cerebral Artery occlusion (ischemia), mice submitted to Middle Cerebral Artery occlusion and administration of GKK1032C and CL0670.
(§12) All mice were firstly trained in the rotarod for 3 consecutive days. After this period, the mice were put to sleep with sevoflurane and submitted to surgery. Occlusion was performed by maintain the surgical filament occluding the middle cerebral artery for 30 minutes. Once removed, GKK1032C and CL0670 were injected at the jugular vein. 24 hours after reanimation, the animals were submitted to the rotarod test.

C57BL6/J male mice [6] = assay: Stroke size after Middle Cerebral Artery occlusion (tetrazolium chloride); type: in vivo; details: for protection of the stroke volume caused by the Middle Cerebral Artery occlusion: GKK1032C and CL0670 10 mg/kg intravenously (FIG. 19); for percentage averaged stroke volume: mice treated with GKK1032C and CL0670 10 mg/kg intravenously after MCA occlusion, untreated ischemia ˜48%
Description: FIG. 19 is the graphical representation of the volume of the cerebral stroke of mice submitted to Middle Cerebral Artery occlusion effect (empty bar) and of mice submitted to Middle Cerebral Artery occlusion and administration of Compound I and CL0670 (solid bar). *: p-value<0.05 vs. ischemia (student's test).
as §10, §11, §12
To compare the neuroprotective effect caused by GKK1032C and CL0670 to the motor coordination of mice and the cerebral damage caused by the chirurgical procedure, the animals were sacrificed, and the stroke size measured by visual inspection after treatment with tetrazolium chloride. […] The data confirms that GKK1032C and CL0670 are excellent neuroprotector agents against stroke.

| SMILES | H2O2 production in neuron cells after NMDA [1] | neuronal apoptosis (caspase-3 activity) after NMDA [2] | motor discoordination (rotarod) induced by 3-nitropropionic acid (C57BL6/J male mice [3]) | number of line crossings (open field), 3-nitropropionic acid model (C57BL6/J male mice [4]) | time spent in central square of the arena (open field), 3-nitropropionic acid model (C57BL6/J male mice [4]) | recovery of motor coordination (rotarod) of mice with stroke (C57BL6/J male mice [5]) | protection of the stroke volume caused by the Middle Cerebral Artery occlusion (C57BL6/J male mice [6]) | percentage averaged stroke volume (C57BL6/J male mice [6]) |
| --- | --- | --- | --- | --- | --- | --- | --- | --- |
| C=CC1(C)C=C(C)C2C3C(Oc4ccc(cc4)CC4C(=O)NC(O)C4C(=O)C31)C1C(C)CC(C)CC21C (stereo not shown) [CL0670] | successful in preventing H2O2 from being produced | effective in protecting neuron cells against apoptosis | prevent partially | increased | increased | ~17% | roughly 18% | 39.5% |
| C=CC1(C)C=C(C)C2C3C(Oc4ccc(cc4)CC4(O)NC(=O)C5(OC45)C(=O)C31)C1C(C)CC(C)CC21C (stereo not shown) [Compound I] | successful in preventing H2O2 from being produced | effective in protecting neuron cells against apoptosis | prevent partially | increased | increased | ~17% | roughly 18% | 39.5% |
